Experimental data from patent publication EP4793271A1, “NEUROPROTECTIVE AGENT” (National Center of Neurology and Psychiatry, priority 2023, dated 2025).
Like-named read-outs stand apart in the source and are kept apart here.

What was measured:
[1] = molecular target: T1, nicotinamide phosphoribosyl transferase (NAMPT) (Homo sapiens, UniProt P43490); assay: NAMPT activity measurement (NMN fluorescence detection); type: biochemical; conditions: NAMPT recombinant protein, 10 µM Nam; for IC50: read-out: Evaluation on NAMPT inhibitory
T1 construct: purchased Medical & Biological Laboratories Co., Ltd. (MBL)
T1 sequence (P43490 whole entry, species assumed): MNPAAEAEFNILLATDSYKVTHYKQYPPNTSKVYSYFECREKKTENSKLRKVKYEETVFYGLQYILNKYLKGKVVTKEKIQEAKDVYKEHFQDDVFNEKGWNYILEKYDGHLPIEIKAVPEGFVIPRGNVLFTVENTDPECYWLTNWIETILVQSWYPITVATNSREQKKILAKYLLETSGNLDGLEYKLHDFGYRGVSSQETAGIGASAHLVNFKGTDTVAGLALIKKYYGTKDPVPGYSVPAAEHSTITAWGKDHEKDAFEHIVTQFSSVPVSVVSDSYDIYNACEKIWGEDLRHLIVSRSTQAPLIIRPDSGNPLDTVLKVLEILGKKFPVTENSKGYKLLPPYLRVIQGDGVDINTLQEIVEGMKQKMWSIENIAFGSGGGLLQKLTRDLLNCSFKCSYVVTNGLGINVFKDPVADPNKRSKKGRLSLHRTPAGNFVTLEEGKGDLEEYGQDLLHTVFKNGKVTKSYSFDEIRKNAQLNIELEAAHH
Protocol: The compound of the present invention was evaluated for the ability to influence the activity of nicotinamide phosphoribosyl transferase (NAMPT) which is an enzyme that metabolizes nicotinamide (Nam), not the target SARM1.
The enzymatic reaction of NAMPT was carried out by adding NAMPT recombinant protein (manufactured by Medical & Biological Laboratories Co., Ltd. (MBL)) to a reaction solution containing the substrate Nam, phosphoribosylpyrophosphate (PRPP), ATP, and the like (composition: […] (pH = 7.4), 2 µM ATP, 0.5 µM PRPP, 0.02% BSA, 2 µM DTT, 1.2 µM MgCl2, and 10 µM Nam). The amount of the reaction product NMN was detected by detecting the fluorescent signal of a fluorescent substance obtained through the reaction of 2-acetylbenzofuran with NMN using SpectraMax M2 (Molecular Devices) (excitation: 421 nm, fluorescence: 480 nm) (Moriya et al, Chemical Communications 2013, 49 11500). The test compound was added at final concentrations of 10 µM, 3 µM, 1 µM, 300 nM, 100 nM, 30 nM, 10 nM, and 3 nM to the NMN synthesis reaction system described above. The NMN-derived fluorescent signal was normalized against a control group and plotted as the function of the test compound concentrations, and the compound was evaluated for its NAMPT inhibitory effect by calculating IC50.
The IC50 value was evaluated as ∘ for ≥1 µM and as Δ for ≥0.1 µM.

[2] = tested on: primary cultured cells of mouse fetus-derived dorsal root ganglia (DRGs); assay: Suppression of axonal degeneration after axotomy in DRG explant culture; type: cell-based; conditions: minimum concentration at which axonal degeneration was suppressed (DI 0.3 or less), 24 hours after axotomy; for minimal effective concentration: Mus musculus, read-out: Evaluation on protection against degeneration
Protocol: The compound of the present invention was studied for its protective effect against axonal injury using primary cultured cells of mouse fetus-derived dorsal root ganglia (DRGs).
DRGs were collected from a fetus derived from an ICR mouse (13.5 days of pregnancy). DRGs were cultured using a plate coated by incubation with 0.1 mg/mL poly-L-lysine at 4°C for 24 hours or longer, washing with PBS, and then incubation with 2.5 µg/mL Cultrex Mouse Laminin I at 37°C for 4 to 6 hours.
One of DRGs collected was plated to each well of the coated 24-well plate. The DRG was cultured in a nicotinamide-free medium for neuron (supplemented with 10% FBS, 1 mM glutamine, 50 ng/mL NGF2.5S, and penicillin-streptomycin) for 24 hours at maximum from the start of culture and then cultured in a nicotinamide-free medium for neuron (supplemented with 2% MACS NeuroBrew-21, 50 ng/mL NGF2.5S, 1% Glutamax, 20 µM uridine, 20 µM 5-fluoro-2'-deoxyuridine, and penicillin-streptomycin) for 7 to 8 days.
The nicotinamide-free medium for neuron was prepared so as to have the same constituents as those of the composition published in a previously reported paper (Brewer et al., J. Neuroscience Research 35: 567-576) except for nicotinamide with reference to this composition.
The test compound is dissolved in DMSO and added to cells such that the final concentration of DMSO is 0.1% (1000-fold dilution). 10 mM, 1 mM, 100 µM, 10 µM, 1 µM, and 100 nM samples of the test compound are prepared and added at a 1000-fold dilution to cells.
Axotomy was carried out by scooping out a cell body portion of the cultured DRG with a chip for a micropipette. The test compound was added at the following concentrations (final concentration: 10 µM, 1 µM, 100 nM, 10 nM, 1 nM, and 100 pM) within 30 minutes after axotomy. The compound was evaluated for its protective effect against axonal degeneration by imaging (Leica DMIL microscope, 20× objective lens) the state of neurites 24 hours after axotomy and evaluating the degree of degeneration. The degree of degeneration was quantified using a program uniquely developed using the R language. A degeneration index (DI) was used as an indicator for the degree of degeneration, and the ratio of the area of a fragmented axon to the total area of axons was calculated as defined in the equation of Expression 2. Suppressed axonal degeneration was evaluated when the value of DI was 0.3 or less. The minimum concentration at which axonal degeneration was suppressed was determined for each compound. Degeneratioin index (DI) = (Degenerated axons)/(All axons) [formula]
The axonal protective activity was evaluated as A ≤ 0.01 µM, 0.01 µM < B ≤ 0.1 µM, and 0.1 µM < C ≤ 1 µM depending on the minimum concentration at which axonal degeneration was suppressed.

hSARM1 = molecular target: T2, hSARM1 (Homo sapiens, UniProt Q6SZW1); assay: Human SARM1 activity measurement in HEK293 cells transiently transfected with ΔN-hSARM1 (PC6 fluorescent probe); type: cell-based; design: expressed in transfected cells; host or cells: HEK293, pcDNA3 expression vector
T2 sequence (Q6SZW1 28-724): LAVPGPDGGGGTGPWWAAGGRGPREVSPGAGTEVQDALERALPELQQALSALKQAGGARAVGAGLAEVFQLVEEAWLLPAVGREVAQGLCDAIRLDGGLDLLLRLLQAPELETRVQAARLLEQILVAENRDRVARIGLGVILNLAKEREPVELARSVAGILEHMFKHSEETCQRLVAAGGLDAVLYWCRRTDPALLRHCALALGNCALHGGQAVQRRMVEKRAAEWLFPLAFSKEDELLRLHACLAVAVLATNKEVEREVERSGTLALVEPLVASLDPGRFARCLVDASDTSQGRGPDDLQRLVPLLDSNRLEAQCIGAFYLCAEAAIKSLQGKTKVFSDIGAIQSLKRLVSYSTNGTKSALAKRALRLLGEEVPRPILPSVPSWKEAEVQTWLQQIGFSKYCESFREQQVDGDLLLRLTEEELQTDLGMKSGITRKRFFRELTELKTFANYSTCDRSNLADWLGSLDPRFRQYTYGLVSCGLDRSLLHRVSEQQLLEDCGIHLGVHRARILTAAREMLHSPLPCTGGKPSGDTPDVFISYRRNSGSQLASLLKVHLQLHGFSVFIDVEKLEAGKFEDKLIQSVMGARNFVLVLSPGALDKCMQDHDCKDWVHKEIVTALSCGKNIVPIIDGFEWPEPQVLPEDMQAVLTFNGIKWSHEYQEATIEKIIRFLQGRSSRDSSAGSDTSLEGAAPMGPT
Protocol: HEK293 cells cultured in a prepared medium of nicotinamide-free DMEM (Dulbecco's modified Eagle medium) supplemented with 10% FBS (BioSera), a 1% penicillin-streptomycin solution (FUJIFILM Wako Pure Chemical Corp.), 5 μM nicotinamide were inoculated at approximately 50,000 cells/well to a 96-well microplate, and the cells were cultured at 37°C under 5% CO2, transiently transfected on the next day with a pcDNA3 expression vector containing a DNA sequence (SEQ ID NO: 1) deficient in a mitochondrial targeting sequence encoded by an N-terminal 78-base sequence in cDNA encoding human sterile α- and armadillo-motif-containing protein (hSARM1) using PEI MAX(R) reagent (PolySciences Inc.), and forced to express ΔN-hSARM1 (SEQ ID NO: 2). Approximately 8 hours later, PC6, which reacts as a substrate of SARM1-specific base exchange reaction and functions as a fluorescent probe, was added thereto at a final concentration of 50 μM, and intracellular hSARM1 activity was measured (Li et al, eLife 2021 10: e67381). A compound for inhibitory activity evaluation was added at a final concentration of 30 μM at the same time with PC6, while dimethyl sulfoxide (Nacalai Tesque Inc.) was added to samples of a control group at the same time with PC6. The cells were incubated at 37°C under 5% CO2 for approximately 48 hours from transfection, followed by fluorescent signal measurement using SpectraMax M2 (Molecular Devices) (excitation: 405 nm, fluorescence: 525 nm, fluorescence cutoff: 515 nm). Results of this screening are reported as an inhibition rate (%) relative to a negative control defined as follows by using fluorescence intensity measured from a control group without transfection with ΔN-hSARM1 as a background whereas using fluorescence intensity measured from a control group transfected with ΔN-hSARM1 as the negative control. Inhibitory rate (%) = 100-(([…]-Background))/((Signalofthenegativecontrol-Background)) × 100 [formula] The nicotinamide-free medium was prepared so as to have the same composition as that of DMEM having known composition which is generally used in the art except for nicotinamide. […]

[3] = inhibition rate, compound 30 µM, PC6 50 µM, HEK293 cells expressing ΔN-hSARM1, approximately 48 hours from transfection, read-out: Evaluation on hSARM1 inhibitory

Compound	Evaluation on NAMPT inhibitory [1]	minimal effective concentration [2]	inhibition at 30 µM (hSARM1; [3])	IC50 [1]	Evaluation on protection against degeneration [2]	inhibition at 30 µM (hSARM1; HEK293, read-out: Evaluation on hSARM1 inhibitory)
O=C(NCc1ccc(NC(=O)c2ccc(F)cc2)nc1)c1cccnc1 [Compound 117]	○	≤ 0.01 µM	> 75%	–	–	–
O=C(NCc1ccc(NC(=O)c2ccc(Cl)cc2)nc1)c1cccnc1 [Compound 118]	○	≤ 0.01 µM	> 75%	–	–	–
Cc1ccc(C(=O)Nc2ccc(CNC(=O)c3cccnc3)cn2)cc1 [Compound 119]	○	≤ 0.01 µM	> 75%	–	–	–
O=C(NCc1ccc(NC(=O)c2cccnc2)nc1)c1cccnc1 [Compound 120]	○	≤ 0.01 µM	> 25%	–	–	–
O=C(NCc1ccc(NC(=O)c2ccc3ncccc3c2)nc1)c1cccnc1 [Compound 122]	○	≤ 0.01 µM	> 75%	–	–	–
O=C(Cc1ccc2ccccc2c1)Nc1ccc(CNC(=O)c2cccnc2)cn1 [Compound 123]	–	≤ 0.01 µM	> 75%	≥ 100 nM	–	–
O=C(NCc1ccc(NC(=O)c2ccncc2)nc1)c1cccnc1 [Compound 124]	○	≤ 0.01 µM	> 75%	–	–	–
O=C(NCc1ccc(NC(=O)c2ccccn2)nc1)c1cccnc1 [Compound 125]	–	≤ 0.01 µM	> 75%	≥ 100 nM	–	–
O=C(NCc1ccc(NC(=O)c2cnc3ccccc3c2)nc1)c1cccnc1 [Compound 126]	–	≤ 0.01 µM	> 75%	≥ 100 nM	–	–
O=C(NCc1ccc(NC(=O)c2ccc3ccccc3c2)nc1)c1cccnc1 [Compound 127]	–	≤ 0.01 µM	> 75%	≥ 100 nM	–	–
O=C(NCc1ccc(NC(=O)c2ccc(-c3ccccc3)cc2)nc1)c1cccnc1 [Compound 128]	○	≤ 0.01 µM	> 75%	–	–	–
COc1ccc(C(=O)Nc2ccc(CNC(=O)c3cccnc3)cn2)cc1 [Compound 129]	○	≤ 0.01 µM	> 75%	–	–	–
Cc1ccccc1C(=O)Nc1ccc(CNC(=O)c2cccnc2)cn1 [Compound 130]	○	≤ 0.01 µM	> 75%	–	–	–
CCc1ccc(C(=O)Nc2ccc(CNC(=O)c3cccnc3)cn2)cc1 [Compound 131]	○	≤ 0.01 µM	> 75%	–	–	–
O=C(NCc1ccc(NC(=O)c2cccc(Cl)c2)nc1)c1cccnc1 [Compound 132]	○	≤ 0.01 µM	> 75%	–	–	–
O=C(NCc1ccc(NC(=O)c2ccccc2F)nc1)c1cccnc1 [Compound 133]	○	≤ 0.01 µM	> 75%	–	–	–
Cc1ccc(C(=O)Nc2ccc(CNC(=O)c3cccnc3)cn2)cc1C [Compound 134]	○	≤ 0.01 µM	> 75%	–	–	–
Cc1ccc(C(=O)Nc2ccc(CNC(=O)c3cccnc3)cn2)c(C)c1 [Compound 135]	○	–	–	–	A (A ≤ 0.01 µM)	> 75%
Cc1cc(C)cc(C(=O)Nc2ccc(CNC(=O)c3cccnc3)cn2)c1 [Compound 136]	○	≤ 0.01 µM	> 75%	–	–	–
O=C(NCc1ccc(NC(=O)c2ccc(F)c(F)c2)nc1)c1cccnc1 [Compound 137]	○	≤ 0.01 µM	> 75%	–	–	–
O=C(NCc1ccc(NC(=O)c2cc(F)cc(F)c2)nc1)c1cccnc1 [Compound 138]	○	≤ 0.01 µM	> 75%	–	–	–
O=C(NCc1ccc(NC(=O)c2ccc(F)cc2F)nc1)c1cccnc1 [Compound 139]	○	≤ 0.01 µM	> 25%	–	–	–
